This test has as its target T1, FK506 binding protein 12 (FKBP12) (Homo sapiens, UniProt P42345+P62942).
T1 construct: gene FKBP1A; pAsh-FKBP12 co-transfected with phAG-mTOR in HeLa cells; with mTOR
Kind of test: Fluoppi cell assay of FKBP12-mTOR ternary complex formation in HeLa cells. The class given is cell-based.

Usually EC50 stands for the concentration needed to bring the measured effect to its halfway point. The low end stands for an effect from little substance, the high end for a need for much substance.

T1 sequence (P62942 2-108, other chains not shown): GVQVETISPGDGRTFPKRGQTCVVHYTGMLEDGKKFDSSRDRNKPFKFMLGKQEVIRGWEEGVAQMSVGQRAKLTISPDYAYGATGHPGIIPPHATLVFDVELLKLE

`COC1CC(O)CC(=O)CC(=O)N2CCCCC2C(=O)OC(C(C)CC2CCC(O)C(OC)C2)CC(=O)C(C)C=C(C)C(O)C(OC)C(=O)C(C)CC(C)C=CC=CC=C1C` (mixture of isomers) [compound 1, 1]: the EC50 was determined as 1880 nM.
